The values below come from patent US12616674B2, “Anti-fibrotic NEU3 inhibitor compounds and methods of use” (The Texas A&M University System, priority 2019, dated 2026).

For assay [1], the target named is T1, recombinant human sialidase NEU3 (Homo sapiens, UniProt Q9UQ49).
T1 construct: purchased Origene TP316537
T1 sequence (Q9UQ49 1-428): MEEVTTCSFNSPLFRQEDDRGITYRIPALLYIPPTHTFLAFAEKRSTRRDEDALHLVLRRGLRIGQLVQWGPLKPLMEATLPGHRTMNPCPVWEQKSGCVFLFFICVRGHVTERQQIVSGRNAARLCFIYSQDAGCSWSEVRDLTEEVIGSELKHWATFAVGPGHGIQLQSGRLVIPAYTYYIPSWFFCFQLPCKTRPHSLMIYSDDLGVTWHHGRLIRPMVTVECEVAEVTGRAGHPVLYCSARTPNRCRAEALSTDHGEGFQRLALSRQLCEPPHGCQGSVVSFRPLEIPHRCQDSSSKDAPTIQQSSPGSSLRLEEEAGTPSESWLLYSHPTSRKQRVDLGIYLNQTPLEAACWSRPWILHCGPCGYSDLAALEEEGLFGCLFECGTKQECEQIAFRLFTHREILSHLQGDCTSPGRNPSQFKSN
The assay can be described thus: NEU3-catalyzed L-TGF-β1 activation (TGF-β1 release/concentration assay, active TGF-β1 ELISA). Format: biochemical. The settings on record: recombinant human NEU3, L-TGF-β1, PBS pH 6.9, 2 hours 37° C.; read-out: IC50, inhibits human NEU3 in the TGF-β1 concentration assay. As for the experimental part: To determine if NEU3 can cause latent transforming growth factor-β1 (L-TGF-β1) to release active TGF-β1, 200 ng/ml recombinant human L-TGF-β1 (299-LT/CF, R&D Systems) was incubated with varying concentrations of recombinant human NEU3 (TP316537, Origene) in a total volume of 100 μl of PBS pH 6.9 in a 96-well microplate (651261, Greiner Bio-one, Monroe, NC). The microplates were covered with aluminum foil and incubated at 37° C. for 2 hours. Following incubation, the reaction mixtures were assayed using a TGF-β1 ELISA kit (DY240, R&D Systems) following the manufacturer's protocol with the exception that the reaction mixtures were not processed for acid treatment, so as to measure only active TGF-β1 and not total TGF-β1. The absorbance was read with a SynergyMX plate reader (BioTek, Winooski, VT).
To determine the ability of compounds 1-31 to inhibit human recombinant NEU3 in-vitro, compounds were dissolved in 5 ml water to 20 mM in 15 ml tubes (89039-664, VWR, Radnor, PA), with the exception that 4-hydroxypyridine-2-carboxylic acid, nicotinic acid, and 4-aminopicolinic acid were dissolved in 50 μl DMSO to 2 M, and this was then added to 4.95 ml of water to make a 20 mM stock, and O-(tetrahydro-2H-pyran-2yl) hydroxylamine and salicylic acid were dissolved in 50 μl methanol to 2 M, and this was then added to 4.95 ml of water to make a 20 mM stock. All stocks were stored at 4° C. and used within 2 weeks of preparation. A 10-fold dilution series of the compounds starting at 2 mM were made in PBS pH 6.9 in 1.7 ml clear microtubes (22-281, Genesee Scientific). 100 μl of diluted compound was added to the well of a 96 well plate and then 50 μl of 400 ng/ml recombinant human sialidase NEU3 (TP316537, Origene) in PBS pH 6.9 was added to each well (50 μl PBS pH 6.9 for the control), and the plate was incubated for 30 minutes at 37° C. 50 μl of 800 ng/ml L-TGF-β1 (299-LT/CF, R&D Systems) in PBS pH 6.9 was then added to the well. The plate was covered with aluminum foil and incubated for 2 hours at 37° C., and released active TGF-β1 was assayed as described above.

For the next assay, the target named is T2, recombinant mouse NEU3 (Mus musculus, UniProt Q9JMH7).
T2 construct: c-Myc; host or cells: HEK 293 Freestyle cells
T2 sequence (Q9JMH7 1-418): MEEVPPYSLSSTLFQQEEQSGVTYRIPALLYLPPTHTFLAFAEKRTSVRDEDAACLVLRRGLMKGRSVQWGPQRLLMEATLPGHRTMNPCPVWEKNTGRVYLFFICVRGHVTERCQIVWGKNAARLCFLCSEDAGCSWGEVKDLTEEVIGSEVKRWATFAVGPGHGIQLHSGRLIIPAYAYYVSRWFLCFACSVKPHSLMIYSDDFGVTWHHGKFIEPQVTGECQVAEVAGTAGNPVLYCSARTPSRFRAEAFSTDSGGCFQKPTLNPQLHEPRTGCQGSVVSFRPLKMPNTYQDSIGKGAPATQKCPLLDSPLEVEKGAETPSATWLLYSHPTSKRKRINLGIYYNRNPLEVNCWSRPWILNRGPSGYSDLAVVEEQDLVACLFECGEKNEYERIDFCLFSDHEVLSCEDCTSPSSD
In words: Recombinant mouse NEU3-catalyzed TGF-β1 activation (TGF-β1 ELISA). Format: biochemical. The settings on record: recombinant mouse NEU3, FIGS. 7A-B. On the procedure:
To determine if selected NEU3 inhibitors could be used in mice to inhibit mouse NEU3, we made recombinant mouse NEU3 in HEK 293 Freestyle human embryonic kidney cells. HEK 293 Freestyle cells (Life Technologies, Grand Island, NY) were cultured in FreeStyle 293 media (12338-018, Life Technologies, Grand Island, NY). 1×10^5 cells were mixed with 2 μg of 100 μg/ml of murine Neu3 expression clone (MR223297, Origene), in 100 μl PBS (GE Lifesciences), and were transfected by electroporation using a 4D-Nucelofactor System (Lonza) following the manufacturer's protocol. The transfected cells were kept at room temperature for 15 minutes for recovery, after which the cells were cultured in 25 ml Freestyle 293 media with 250 μg/ml of G418 antibiotic (345812, Calbiochem EMD Chemicals Inc. San Diego, CA) to select for transfected cells, in a 200 ml cell culture flask (431464U, Corning) at 37° C. humidified with 5% CO2. After 10 days, the cells were isolated, lysed, and c-Myc tagged recombinant mouse NEU3 protein was purified using a Myc-Trap A kit (ytak-20, Chromotek, Hauppauge, NY) following the manufacturer's protocol. The eluted protein was stored in 50 μl of 10% glycerol, 100 mM glycine, 25 mM Tris-HCl pH 7.3.
To determine if NEU3 inhibitors would be effective in mice, NEU3 inhibitors were tested against recombinant mouse NEU3. […]
Background: ELISA stands for enzyme-linked immunosorbent assay.

On to `COC(=O)c1ccccn1` [Compound 6, methyl picolinate], for which, in assay [1], the IC50 was found to be 0.014 nM. At recombinant mouse NEU3, the “inhibition of NEU3's activation of TGF-β1” value is recorded as “inhibited”. For `CN1CCC(N)CC1C(=O)O` (centres unmarked) [Compound 26, 2-piperidinecarboxylic acid, 4-amino-1-methyl], the IC50 in assay [1] is less than 0.01 nM.

For `CC(=O)c1ccccn1` [Compound 5, 2-acetylpyridine], the IC50 in assay [1] turned out to be 42 nM. Besides, the “inhibition of NEU3's activation of TGF-β1” value at recombinant mouse NEU3 was “inhibited”.
